Legend:
[1] = system: murine peritoneal exudate cells (PEC); test: "In vitro-ex vivo" effect on the phagocytic activity of exudate peritoneal cells (SRBC phagocytosis); parameters: species or system mouse (B6 D2 F1); conditions: for SRBC per phagocytizing cell: average number of SRBC in each phagocyte
Method: Assessment of the "in vitro-ex vivo" effect of ST 557, ST 563, ST 564, ST 570, ST 608 and ST 626 on the phagocytic activity of exudate peritoneal cells (PEC)
Male B6 D2 F1 mice aged 6-8 weeks (5 animals each group) were used.
The compounds were administered i.p. (25 mg/kg/day), ST 557, ST 563 and ST 626 were also administered per os (100 mg/kg/day) from day -5 to day -1 (PEC harvesting at day 0).
The experimental procedure was substantially the same as that described by Williams et al., in "Methods in Immunology and Immunochemistry", Acad. Press. 5: 261 (1976).
In particular, 24 hours following the end of the treatment, PECs from each experimental group were harvested, pooled and their concentration was adjusted to 4×10^6 cells/ml.
To volumes of 250 μl of each PEC sample were added equal volumes of 0.4% SRBC (Sheep Red Blood Cells) opsonized with hyperimmune serum.
The samples (duplicate) were incubated for 1 hour and then subjected to hypotonic shock in order to remove the non-phagocytized SRBC. After restoring the osmolarity, the phagocytes were cytocentrifuged, stained with a differential dye and observed under the microscope.
The results were expressed as:
(a) percentage of cells that have phagocytized with respect to 100 phagocytizing cells;
(b) total number of phagocytized SRBC;
(c) average number of SRBC in each phagocyte.

splenocytes = test: "In vitro-ex vivo" effect on the mytogen (PHA, ConA, LPS)-induced splenocyte proliferation in mice immunodepressed with cyclophosphamide; parameters: species or system mouse (B6 D2 F1); conditions: for S.I. (stimulation index): with respect to the immunodepressed controls; for AUC (area under curve): immunodepressed
Method: Assessment of the "in vitro-ex vivo" effect of ST 557, ST 563 ST 564 on the mytogen (PHA, ConA, LPS)-Induced splenocyte proliferation in mice Immunodepressed with cyclotohosphamide
Male B6 D2 F1 mice aged 7-9 weeks (5 mice per group) were used.
The immunosuppressor (cyclophosphamide) was administered i.p. at the dose of 100 mg/kg at day -5. The compounds were administered i.p. (25 mg/kg/day) and per os (100 mg/kg/day) from day -5 to day -1 (spleen excision at day 0).
Splenocyte proliferation was induced by three different mytogens: PHA and ConA active on T-lymphocytes, and LPS active on B-lymphocytes. Each mytogen was tested at three different concentrations (suboptimal, optimal and superoptimal) corresponding to 0.5, 4 and 6 mcg/ml/well for PHA; 0.5, 4 and 8 mcg/ml/well for ConA and 0.5, 150 and 500 mcg/ml/well for LPS.
The experimental procedure is identical to that described in test 4.
The results are expressed as both AUC (see test 4) and S.I. In order to assess the efficacy of the immunosuppressor and the activity of the tested compounds, S.I. has been determined both for the immunodepressed controls (with respect to the normal controls) and for the immunodepressed treated animals (with respect to the immunodepressed controls), respectively. [formula]

LD50, intravenous = conditions: mouse, in vivo, 0.9% saline
Method: LD50 was determined according to Carrol S. Weil's method, Biometrics, pages 249-263 (1952) in male Swiss albino mice weighing 22-24 g.
The various compounds dissolved in 0.9% saline were administered intravenously.

Row | SMILES | Fagocytizing cells ([1]; 25 mg/kg/day i.p.) | Total n° SRBC phagocytized ([1]; 25 mg/kg/day i.p.) | SRBC per phagocytizing cell ([1]; 25 mg/kg/day i.p.) | Fagocytizing cells ([1]; 100 mg/kg/day os) | Total n° SRBC phagocytized ([1]; 100 mg/kg/day os) | SRBC per phagocytizing cell ([1]; 100 mg/kg/day os) | S.I. (stimulation index) (splenocytes; ConA, 25 mg/kg/day i.p.) | S.I. (stimulation index) (splenocytes; ConA, 100 mg/kg/day os) | AUC (area under curve) (splenocytes; ConA, 25 mg/kg/day i.p.) | AUC (area under curve) (splenocytes; ConA, 100 mg/kg/day os) | S.I. (stimulation index) (splenocytes; LPS, 25 mg/kg/day i.p.) | S.I. (stimulation index) (splenocytes; LPS, 100 mg/kg/day os) | AUC (area under curve) (splenocytes; LPS, 25 mg/kg/day i.p.) | AUC (area under curve) (splenocytes; LPS, 100 mg/kg/day os) | S.I. (stimulation index) (splenocytes; PHA, 25 mg/kg/day i.p.) | AUC (area under curve) (splenocytes; PHA, 25 mg/kg/day i.p.) | LD50 (LD50, intravenous)
1 | COc1cc2c(cc1OC)CC(N(CC1CC1)CC1CC1)CC2 (stereo not drawn) [ST 557, 2-[(N,N-dicyclopropylmethyl)amino]-6,7-dimethoxytetraline] | 29.6% | 93.6 | 3.20 | 59.0% | 190.5 | 3.23 | 1.50 | 0.92 | 763 ± 14 ×10^-3 | 675 ± 21 ×10^-3 | 5.85 | 0.97 | 6411 ± 214 ×10^-3 | 4485 ± 433 ×10^-3 | 1.90 | 191 ± 10 ×10^-3 | 28.3 mg/kg
2 | COc1cc2c(cc1OC)CC(NCC(O)c1ccc(C)cc1)CC2 (stereo not drawn) [ST 563, 2-[(N-2-hydroxy-2-(4-methylphenyl)ethyl)amino]-6,7-dimethoxytetraline] | 42.5% | 146.0 | 3.40 | 58.5% | 164.0 | 2.80 | 1.31 | 0.84 | 666 ± 16 ×10^-3 | 619 ± 12 ×10^-3 | 4.02 | 0.41 | 3715 ± 200 ×10^-3 | 3501 ± 360 ×10^-3 | 2.17 | 217 ± 14 ×10^-3 | –
